Patent US20100184759A1, “PYRANO-PYRAZOLE-AMINES” (priority 2007, published 2010)

Assays:
σ2-receptor = molecular target: T1, σ2-receptor (Rattus norvegicus, UniProt Q5U3Y7); experiment: Sigma 2 (Version B) receptor binding, [3H]-ditolylguanidine, rat liver preparation; settings: for Ki: radioligand [3H]-ditolylguanidine 3 nM, σ1 sites masked with (+)-pentazocine; for inhibition at 1 µM: compound at 1 μM, value in square brackets
T1 construct: the σ2-Receptorpreparation was prepared from rat liver; from tissue; host or cells: rat liver membrane homogenate
T1 sequence (Q5U3Y7 1-176): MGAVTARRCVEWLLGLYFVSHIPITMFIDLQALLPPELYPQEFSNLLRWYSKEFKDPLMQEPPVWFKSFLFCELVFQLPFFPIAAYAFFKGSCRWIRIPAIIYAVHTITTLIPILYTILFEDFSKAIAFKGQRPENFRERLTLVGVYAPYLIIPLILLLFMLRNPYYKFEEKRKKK
Description: In brief the σ2-Receptorpreparation was prepared from rat liver. The livers were homogenized in 5 to 6 times of volume sucrose solution (0.32M) and homogenized. The homogenate was centrifuged at 2900 rpm, 4° C., 10 min). the supernatant was centrifuged again (31000×g, 4° C., 20 min). The pellet was resuspended in TRIS-buffer, incubated for 30 min at room temperature while stirring and centrifuged f (31000×g, 4° C., 20 min). The pellet was resuspended in cold TRIS-buffer pH 8 and homogenized. Then the protein content was measured (approx. 2 mg/mL) and the homogenate frozen at −80° C. for later use.
The radioligand used was [^3H]-Ditolylguanidin in TRIS-buffer pH 8. The σ1-receptor binding sites were masked through (+)-Pentazocin-solution in TRIS-Puffer pH 8.
In a volume of 200 μL 50 μL compound solution of varying concentration, 50 μL (+)-Pentazocin-solution (2 nM; resulting in 500 nM in the assay), 50 μL radioligand-solution (12 nM; resulting in 3 nM in the assay) and finally 50 μL of receptor preparation (approx. 2 mg/mL) were given into a well of a microplate equipped with a filter. The plate was closed and stirred for 2 h at room temperature and 500 rpm. Following that the solvents were removed by a harvester through the filter. After rinsing with H2O the filter was measured in a scintillation counter ([^3H]-protocol).

σ1-receptor = molecular target: T2, σ1-receptor (Cavia porcellus, UniProt Q60492); experiment: Sigma 1 (Version B) receptor binding, [3H]-(+)-pentazocine, guinea pig brain preparation; settings: radioligand [3H]-(+)-pentazocine 2 nM
T2 construct: the σ1-receptor preparation was prepared from guinea pig brain; from tissue; host or cells: guinea pig brain membrane homogenate
Description: In brief the σ1-receptor preparation was prepared from guinea pig brain. The brains were homogenized in 5 to 6 times of volume sucrose solution (0.32M) and homogenized. The homogenate was centrifuged at 2900 rpm, 4° C., 10 min). the supernatant was centrifuged again (23500×g, 4° C., 20 min). The pellet was resuspended in Tris-buffer, incubated for 30 min at room temperature and centrifuged f (23500×g, 4° C., 20 min). The pellet was resuspended in cold TRIS-buffer and homogenized. Then the protein content was measured (approx. 1.5 mg/mL) and the homogenate frozen at −80° C. for later use.
The radioligand used was [^3H]-(+)-Pentazocin in TRIS-buffer. In a volume of 200 μL 50 μL TRIS-buffer, 50 μL compound solution of varying concentration, 50 μL radioligand-solution (8 nM; resulting in 2 nM in the assay) and finally 50 μL of receptor preparation (approx. 1.5 mg/mL) were given into a well of a microplate equipped with a filter. The plate was closed and stirred for 2.5 h at 37° C. and 500 rpm. Following that the solvents were removed by a harvester through the filter. After rinsing with H2O the filter was measured in a scintillation counter ([^3H]-protocol).

T2 sequence (Q60492 whole entry): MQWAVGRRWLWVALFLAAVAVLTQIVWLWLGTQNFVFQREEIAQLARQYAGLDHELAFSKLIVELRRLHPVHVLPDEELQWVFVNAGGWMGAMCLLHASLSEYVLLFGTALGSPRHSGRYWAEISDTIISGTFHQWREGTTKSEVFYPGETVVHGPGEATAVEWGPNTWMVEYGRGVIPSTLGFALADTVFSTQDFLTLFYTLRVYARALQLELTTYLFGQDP

Ki (σ2-receptor) [nM] | melting point [°C] | Ki (σ1-receptor) [nM] | inhibition at 1 µM (σ2-receptor) [%] | SMILES
453 | 91 | 10.5 ± 1.16 | – | c1ccc(-n2ncc3c2CCOC3CN2CCCCC2)cc1 (stereo not shown) [Example 1, 1-Phenyl-4-(piperidin-1-ylmethyl)-1,4,6,7-tetrahydro-pyrano[4,3-c]pyrazole]
8.3 ± 2.66 | – | 1.6 ± 0.41 | – | c1ccc(C2CCN(CC3OCCc4c3cnn4-c3ccccc3)CC2)cc1 (stereo not shown) [Example 2, 1-Phenyl-4-(4-phenylpiperidin-1-ylmethyl)-1,4,6,7-tetrahydropyrano[4,3-c]pyrazole]
– | 115 | 169 ± 39.6 | 5 | c1ccc(-n2ncc3c2CCOC3CN2CCOCC2)cc1 (stereo not shown) [Example 3, 4-(Morpholin-4-ylmethyl)-1-phenyl-1,4,6,7-tetrahydro-pyrano[4,3-c]pyrazole]
210 ± 54.2 | 151 | 42.3 ± 3.32 | – | c1ccc(N2CCN(CC3OCCc4c3cnn4-c3ccccc3)CC2)cc1 (stereo not shown) [Example 4, 1-Phenyl-4-(4-phenylpiperazin-1-ylmethyl)-1,4,6,7-tetrahydropyrano[4,3-c]pyrazole]
– | 66 | 219 ± 7.22 | 13 | CN1CCN(CC2OCCc3c2cnn3-c2ccccc2)CC1 (stereo not shown) [Example 5, 4-(4-Methylpiperazin-1-ylmethyl)-1-phenyl-1,4,6,7-tetrahydropyrano[4,3-c]pyrazole]
322 | 89 | 59.3 ± 11.2 | – | c1ccc(-n2ncc3c2CCOC3CN2CCCC2)cc1 (stereo not shown) [Example 6, 1-Phenyl-4-(pyrrolidin-1-ylmethyl)-1,4,6,7-tetrahydro-pyrano[4,3-c]pyrazole]
– | 103 | 1380 | 12 | CN(C)CC1OCCc2c1cnn2-c1ccccc1 (stereo not shown) [Example 7, N,N-Dimethyl-1-(1-phenyl-1,4,6,7-tetrahydropyrano[4,3-c]pyrazole-4-yl)methanamine]
536 | – | 2.98 ± 0.72 | – | c1ccc(-n2ncc3c2CCOC3CCN2CCCCC2)cc1 (stereo not shown) [Example 8, 1-Phenyl-4-(2-piperidin-1-yl-ethyl)-1,4,6,7-tetrahydro-pyrano[4,3-c]pyrazole]
15.1 ± 2.98 | – | 0.988 ± 0.07 | – | c1ccc(C2CCN(CCC3OCCc4c3cnn4-c3ccccc3)CC2)cc1 (stereo not shown) [Example 9, 1-Phenyl-4-[2-(4-phenyl-piperidin-1-yl)-ethyl]-1,4,6,7-tetrahydro-pyrano[4,3-c]pyrazole]
431 | – | 2.94 ± 0.43 | – | c1ccc(N2CCN(CCC3OCCc4c3cnn4-c3ccccc3)CC2)cc1 (stereo not shown) [Example 11, 1-Phenyl-4-[2-(4-phenyl-piperazin-1-yl)-ethyl]-1,4,6,7-tetrahydro-pyrano[4,3-c]pyrazole]
1280 | – | 24 ± 2 | – | CN(C)CCC1OCCc2c1cnn2-c1ccccc1 (stereo not shown) [Example 14, Dimethyl-[2-(1-phenyl-1,4,6,7-tetrahydro-pyrano[4,3-c]pyrazol-4-yl)-ethyl]-amine]
